Source: PMC8395308 (International Journal of Molecular Sciences, 2021)
Values joined by “and” are separate entries in the source; they are usually repeats but may differ in a detail not shown here. Equal entries are not always repeated. “Also recorded” adds a separate entry of the source. Structures can show the parent of a compound that is named as a salt.

Assays:
[1] = target: receptor binding domain (HC fragment) of BoNT/A binding to the fourth luminal domain of SV2C (Clostridium botulinum, UniProt P0DPI0); experiment: biochemical; set-up: species or system Mus musculus; settings: for IC50: IC50 (µM), TSP-RSP interaction inhibition; for inhibition at 100 µM: read-out: Maximal Inhibition (%)
BoNT/A = BoNT/A (Clostridium botulinum, UniProt P0DPI0); set-up: species or system CD-1 mice; settings: mouse, in vivo; for Therapeutic effect versus solvent (log-rank test) / Survival (protection) of treated mice: ip
BoNT/E = test system: BoNT/E; set-up: species or system CD-1 mice; settings: mouse, in vivo

Chain of receptor binding domain (HC fragment) of BoNT/A binding to the fourth luminal domain of SV2C (P0DPI0 872-1296 limits assumed): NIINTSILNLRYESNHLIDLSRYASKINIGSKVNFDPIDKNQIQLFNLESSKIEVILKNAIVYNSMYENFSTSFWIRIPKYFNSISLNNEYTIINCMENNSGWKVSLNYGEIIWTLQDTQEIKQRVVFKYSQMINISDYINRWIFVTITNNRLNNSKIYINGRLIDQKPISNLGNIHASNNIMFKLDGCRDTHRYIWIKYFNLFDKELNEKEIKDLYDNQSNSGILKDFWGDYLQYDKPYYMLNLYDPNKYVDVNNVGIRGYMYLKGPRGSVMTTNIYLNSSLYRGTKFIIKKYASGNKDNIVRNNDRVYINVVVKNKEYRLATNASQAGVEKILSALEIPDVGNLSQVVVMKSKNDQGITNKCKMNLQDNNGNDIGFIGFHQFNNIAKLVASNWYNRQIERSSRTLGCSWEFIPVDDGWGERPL
Chain of BoNT/A (P0DPI0 2-448 limits assumed): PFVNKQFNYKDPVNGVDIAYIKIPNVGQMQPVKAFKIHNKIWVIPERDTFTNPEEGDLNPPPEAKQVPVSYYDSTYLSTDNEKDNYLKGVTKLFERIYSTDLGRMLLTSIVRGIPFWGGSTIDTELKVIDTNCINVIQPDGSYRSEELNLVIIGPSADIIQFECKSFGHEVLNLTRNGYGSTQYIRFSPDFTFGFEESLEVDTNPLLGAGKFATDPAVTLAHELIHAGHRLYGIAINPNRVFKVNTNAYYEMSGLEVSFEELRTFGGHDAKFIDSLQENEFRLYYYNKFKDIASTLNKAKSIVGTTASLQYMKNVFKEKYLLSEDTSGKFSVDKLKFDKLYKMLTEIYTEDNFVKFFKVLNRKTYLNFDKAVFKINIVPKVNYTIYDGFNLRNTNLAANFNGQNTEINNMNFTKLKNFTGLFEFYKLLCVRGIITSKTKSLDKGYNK
Chain of BoNT/A (P0DPI0 449-1296 limits assumed): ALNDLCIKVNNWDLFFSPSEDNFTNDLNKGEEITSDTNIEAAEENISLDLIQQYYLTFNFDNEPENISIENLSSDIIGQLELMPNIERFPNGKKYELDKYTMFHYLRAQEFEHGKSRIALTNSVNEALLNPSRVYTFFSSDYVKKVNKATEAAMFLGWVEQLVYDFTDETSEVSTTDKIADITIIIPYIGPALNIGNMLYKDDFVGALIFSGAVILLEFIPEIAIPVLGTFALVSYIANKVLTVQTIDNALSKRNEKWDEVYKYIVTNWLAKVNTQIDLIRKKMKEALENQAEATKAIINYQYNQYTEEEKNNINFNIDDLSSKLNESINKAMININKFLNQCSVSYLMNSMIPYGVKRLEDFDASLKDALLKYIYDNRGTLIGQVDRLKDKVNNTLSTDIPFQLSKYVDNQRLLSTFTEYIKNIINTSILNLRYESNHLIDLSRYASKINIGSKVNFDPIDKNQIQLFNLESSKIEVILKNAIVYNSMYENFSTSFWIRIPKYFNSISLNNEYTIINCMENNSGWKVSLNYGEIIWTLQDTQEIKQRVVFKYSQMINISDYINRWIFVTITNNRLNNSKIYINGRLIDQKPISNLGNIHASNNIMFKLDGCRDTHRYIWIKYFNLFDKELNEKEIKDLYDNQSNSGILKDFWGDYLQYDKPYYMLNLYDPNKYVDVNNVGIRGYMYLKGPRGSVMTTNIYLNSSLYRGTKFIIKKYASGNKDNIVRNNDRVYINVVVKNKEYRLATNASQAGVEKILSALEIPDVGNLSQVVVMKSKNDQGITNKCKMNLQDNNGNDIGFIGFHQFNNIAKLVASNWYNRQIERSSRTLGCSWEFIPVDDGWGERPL

C=CC1=C(C)c2cc3[nH]c(cc4nc(cc5[nH]c(cc1n2)c(C)c5CCC(=O)O)C(CCC(=O)O)=C4C)c(C)c3C=C [PPIX, Protoporphyrin IX disodium]
IC50 [1]: 84 µM | inhibition at 100 µM [1]: ~80% | median survival time (hr) treated (BoNT/A): 26.0 h | median survival time / TTD in the treated group (BoNT/A): 26.0 h | Therapeutic effect versus solvent (log-rank test) (BoNT/A): Significant beneficial therapeutic effects | median TTD / median survival time of treated mice (BoNT/E): 10.7 h | median survival time (hr) treated (BoNT/E): 10.7 h

NCCOc1cc(C(=O)Nc2cc(OCCN)c3ccccc3n2)nc(C(=O)Nc2cc(OCCN)c3ccccc3n2)c1 [Pyridostatin trifluoroacetate salt]
IC50 [1]: 4 µM | inhibition at 100 µM [1]: ~80% | median survival time (hr) treated (BoNT/A): 22.17 h | Therapeutic effect versus solvent (log-rank test) (BoNT/A): did not exert beneficial therapeutic effects

CO/N=C(\C(=O)N[C@@H]1C(=O)N2C(C(=O)O)=C(COC(C)=O)CS[C@H]12)c1csc(N)n1 [Cefotaxime sodium]
Maximal Inhibition (%) [1]: 91% | IC50 [1]: 3 µM | inhibition at 100 µM [1]: ~90% | median survival time (hr) treated (BoNT/A): 21.0 h | Therapeutic effect versus solvent (log-rank test) (BoNT/A): did not exert beneficial therapeutic effects

Nc1nc2[nH]c(=O)cnc2c(=O)[nH]1 [Isoxanthopterin]
IC50 [1]: 34 µM | inhibition at 100 µM [1]: 68% | median survival time (hr) treated (BoNT/A): 26.67 h | Therapeutic effect versus solvent (log-rank test) (BoNT/A): did not exert beneficial therapeutic effects

NC(Cc1cc(O)c(O)cc1O)C(=O)O (racemic) [6-OHD, 6-Hydroxy-DL-DOPA]
IC50 [1]: 1 µM | inhibition at 100 µM [1]: 98% | median survival time (hr) treated (BoNT/A): 28.7 h | survival time of the nonsurviving treated animals (BoNT/A): 28.7 h | Survival (protection) of treated mice (BoNT/A): 33% | Therapeutic effect versus solvent (log-rank test) (BoNT/A): Significant beneficial therapeutic effects | median TTD / median survival time of treated mice (BoNT/E): 9.8 h | median survival time (hr) treated (BoNT/E): 9.8 h

CC(=O)OCC1=C(C(=O)O)N2C(=O)[C@@H](NC(=O)CCC[C@@H](N)C(=O)O)[C@H]2SC1 [Cephalosporin C zinc salt]
IC50 [1]: 27 µM | inhibition at 100 µM [1]: ~90%

NC(CO)C(=O)NNCc1ccc(O)c(O)c1O (stereo not drawn) [Benserazide, Benserazide hydrochloride]
IC50 [1]: 18 µM | inhibition at 100 µM [1]: 95% | median survival time (hr) treated (BoNT/A): 29.8 h | median survival time / TTD in the treated group (BoNT/A): 29.8 h | Therapeutic effect versus solvent (log-rank test) (BoNT/A): Significant beneficial therapeutic effects | median TTD / median survival time of treated mice (BoNT/E): 10.7 h | median survival time (hr) treated (BoNT/E): 10.7 h

O=C(O)C1=CC(=C(c2ccc(O)c(C(=O)O)c2)c2ccc(O)c(C(=O)O)c2)C=CC1=O [ATA, Aurintricarboxylic acid]
IC50 [1]: 2 µM | inhibition at 100 µM [1]: 100% | survival time of the nonsurviving treated animals (BoNT/A): 96 h | Survival (protection) of treated mice (BoNT/A): 92% and 91.6% | Therapeutic effect versus solvent (log-rank test) (BoNT/A): Significant beneficial therapeutic effects | Survival of treated mice (BoNT/E; ip): 100% | Therapeutic effect versus solvent (log-rank test) (BoNT/E; ip): fully protective; also recorded: completely protected

C[C@@](Cc1ccc(O)c(O)c1)(NN)C(=O)O [carbidopa]
Inhibition of the interaction between HC/A fragment and SV2C [1]: failed to inhibit
